Laboratory results: doi:10.1101/2020.11.24.395954v2 (biorxiv, 2021)

B1: AtKAI2 (Arabidopsis thaliana) (protein)
chain: MGVVEEAHNVKVIGSGEATIVLGHGFGTDQSVWKHLVPHLVDDYRVVLYDNMGAGTTNPDYFDFDRYSNLEGYSFDLIAILEDLKIESCIFVGHSVSAMIGVLASLNRPDLFSKIVMISASPRYVNDVDYQGGFEQEDLNQLFEAIRSNYKAWCLGFAPLAVGGDMDSIAVQEFSRTLFNMRPDIALSVGQTIFQSDMRQILPFVTVPCHILQSVKDLAVPVVVSEYLHANLGCESVVEVIPSDGHLPQLSSPDSVIPVILRHIRNDIAM
B2: PpKAI2L-H (Physcomitrium patens) (protein)
chain: MPSPLLSTHNVTVLGNRSDPVVVLGHGLGTDQSVWKYTVPSLVNQNFQVVLYDTMGAGSTETSDFNFKRYSSLQGHVDDLLAILDELEIENCVYVGHSMSGMIGVLASLERPDLFRKLILLSASPRYLNDSSYYGGFEQEDLDQLFSSMRSNFSAWVSGFATAAVGTDIHDEAVQEFSSTFISMRPDVALRTSQFVFQSDFRSILSEVTVPCHIVQSRKDIAVPIEVAEYLRCNLGGWTSVDILQTDGHLPQLSCPELVVPVLLHCIDS

How the values were obtained:
AtKAI2 = target: T1, AtKAI2 (Arabidopsis thaliana, UniProt Q9SZU7); test: biochemical
T1 sequence (Q9SZU7 1-270): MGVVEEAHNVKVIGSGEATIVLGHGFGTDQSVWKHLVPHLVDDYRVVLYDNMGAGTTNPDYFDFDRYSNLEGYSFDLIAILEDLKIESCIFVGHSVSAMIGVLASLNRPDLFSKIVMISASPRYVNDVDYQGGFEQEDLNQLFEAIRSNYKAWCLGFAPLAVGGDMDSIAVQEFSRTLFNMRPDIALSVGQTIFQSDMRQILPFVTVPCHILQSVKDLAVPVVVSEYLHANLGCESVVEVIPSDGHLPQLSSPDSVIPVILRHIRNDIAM

PpKAI2L-K = target: T2, PpKAI2L-K (Physcomitrium patens, UniProt A9S299); conditions: apparent Kd
T2 sequence (A9S299 1-270): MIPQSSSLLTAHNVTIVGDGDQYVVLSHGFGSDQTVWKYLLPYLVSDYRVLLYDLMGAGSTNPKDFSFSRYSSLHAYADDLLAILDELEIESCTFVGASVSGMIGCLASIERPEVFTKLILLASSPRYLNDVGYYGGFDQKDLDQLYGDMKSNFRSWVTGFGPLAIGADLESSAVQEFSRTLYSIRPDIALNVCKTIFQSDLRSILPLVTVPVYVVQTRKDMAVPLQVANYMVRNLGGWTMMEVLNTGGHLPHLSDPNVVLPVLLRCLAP

PpKAI2L-D = target: T3, PpKAI2L-D (Physcomitrium patens, UniProt A9SSF6); conditions: apparent Kd
T3 sequence (A9SSF6 1-271): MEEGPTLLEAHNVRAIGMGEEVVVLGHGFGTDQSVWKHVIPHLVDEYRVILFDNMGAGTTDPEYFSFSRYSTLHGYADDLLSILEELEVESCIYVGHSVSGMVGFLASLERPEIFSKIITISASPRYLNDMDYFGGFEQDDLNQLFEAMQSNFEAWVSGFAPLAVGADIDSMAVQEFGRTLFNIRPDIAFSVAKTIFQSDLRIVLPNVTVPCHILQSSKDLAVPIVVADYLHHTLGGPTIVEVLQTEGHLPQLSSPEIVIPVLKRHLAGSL

AtD14 = AtD14 (Arabidopsis thaliana, UniProt Q9SQR3); test: biochemical
PpKAI2L-E = target: T4, PpKAI2L-E (Physcomitrium patens, UniProt A9ST85); conditions: apparent Kd
T4 sequence (A9ST85 1-270): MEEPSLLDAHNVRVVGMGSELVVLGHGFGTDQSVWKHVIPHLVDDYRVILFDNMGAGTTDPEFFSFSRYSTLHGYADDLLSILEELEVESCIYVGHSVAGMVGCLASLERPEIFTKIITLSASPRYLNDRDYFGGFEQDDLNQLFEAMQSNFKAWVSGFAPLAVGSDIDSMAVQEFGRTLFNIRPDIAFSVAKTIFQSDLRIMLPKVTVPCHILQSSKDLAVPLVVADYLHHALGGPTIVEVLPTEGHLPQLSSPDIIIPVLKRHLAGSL

purified protein = substrate: CC(=O)Oc1ccc([N+](=O)[O-])cc1; test: purified protein

AtD14, sequence (Q9SQR3 whole entry): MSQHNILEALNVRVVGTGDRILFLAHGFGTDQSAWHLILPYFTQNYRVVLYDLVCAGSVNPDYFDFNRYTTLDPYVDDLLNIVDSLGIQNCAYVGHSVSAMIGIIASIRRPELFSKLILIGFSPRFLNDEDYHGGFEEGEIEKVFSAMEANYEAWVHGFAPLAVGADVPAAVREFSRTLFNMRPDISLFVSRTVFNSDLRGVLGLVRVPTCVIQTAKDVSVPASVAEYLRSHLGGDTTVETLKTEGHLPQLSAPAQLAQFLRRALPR

Molecule | Kd (AtKAI2) [µM] | Kd (PpKAI2L-K) [µM] | Kd (PpKAI2L-D) [µM] | Kd (AtD14) [µM] | Kd (PpKAI2L-E) [µM] | Km (purified protein) [µM] | kcat (purified protein) [s⁻¹]
CC1=C[C@@H](O/C=C2/C(=O)O[C@H]3c4ccccc4C[C@@H]23)OC1=O [(-)-GR24] | 45 | 41 | 92 | 94 | 39 | – | –
CC1=C[C@H](O/C=C2/C(=O)O[C@@H]3c4ccccc4C[C@H]23)OC1=O [(+)-GR24] | – | 107 | – | 22.8 ± 9.27 | – | – | –
B1 | – | – | – | – | – | 610.1 ± 36.69 | 2.647 ± 0.06558
B2 | – | – | – | – | – | 2381 ± 644 | 34.02 ± 5.83
